Where two headings read alike, the source gives them in different places. *1 amine or outer side, *2 acyl side, *3 side chain or, on linkers, in order; H or OH if unused. Where a SMILES comes first, the peptide text is derived from it. Bridges are numbered along the chain shown (N, C = ends). The star is where a group is joined. C20 diacid = O=C(O)CCCCCCCCCCCCCCCCCCC(=O)*; C18 diacid = O=C(O)CCCCCCCCCCCCCCCCC(=O)*; γGlu = O=C(O)[C@H](CCC(=O)[*:2])N[*:1]; Trx = NC[C@H]1CC[C@H](C(=O)O)CC1; AEEA = NCCOCCOCC(=O)O; GABA = NCCCC(=O)O

The target of the experiment is T1, Amylin 3(a) receptor (human calcitonin receptor (CTa) and RAMP-3) (Homo sapiens, UniProt O60896+P30988).
T1 construct: expressed in transfected cells; host or cells: BHK570 cells, stably transfected with a CRE-luciferase reporter
Briefly: Luciferase assay (III), BHK Amylin 3(a)//CRE-luc cells. Particulars: BHK cells with Amylin 3(a) receptor and CRE luciferase reporter, 4 hours incubation. The class given is cell-based. In outline:
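BHK570 cells stably expressing CTa, RAMP-3 and a CRE-luciferase reporter, seeded at about 20,000 cells/well and grown overnight. Cells were exposed to standard or sample for 4 h at 37° C in phenol red-free DMEM with 10% FBS and 10 mM Hepes, pH 7,4. Luminescence was read after 30 min LucLite at room temperature.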
Background: Reporter assays use an easily measured gene product as a stand-in for the process of interest.

T1 sequence (O60896 24-148): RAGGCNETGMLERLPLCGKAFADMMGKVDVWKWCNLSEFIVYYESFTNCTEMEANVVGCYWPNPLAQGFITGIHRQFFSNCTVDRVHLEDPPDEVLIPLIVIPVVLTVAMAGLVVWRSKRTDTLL
T1 sequence (P30988 25-474): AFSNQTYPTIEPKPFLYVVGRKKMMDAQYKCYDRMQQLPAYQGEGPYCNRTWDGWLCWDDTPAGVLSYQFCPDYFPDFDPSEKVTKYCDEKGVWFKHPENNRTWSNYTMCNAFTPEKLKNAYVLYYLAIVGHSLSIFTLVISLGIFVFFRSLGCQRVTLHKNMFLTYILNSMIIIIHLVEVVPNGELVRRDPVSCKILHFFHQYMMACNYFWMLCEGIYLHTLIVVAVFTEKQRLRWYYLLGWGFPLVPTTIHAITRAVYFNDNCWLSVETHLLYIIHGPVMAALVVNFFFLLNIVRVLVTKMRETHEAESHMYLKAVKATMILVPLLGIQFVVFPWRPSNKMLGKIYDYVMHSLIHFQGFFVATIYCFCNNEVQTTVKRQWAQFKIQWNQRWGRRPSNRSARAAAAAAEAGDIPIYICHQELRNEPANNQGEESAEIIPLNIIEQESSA

Consider `CC[C@H](C)[C@H](NC(=O)[C@@H]1CCCN1C(=O)CNC(=O)[C@H](Cc1ccccc1)NC(=O)[C@H](CC(N)=O)NC(=O)[C@H](CC(N)=O)NC(=O)[C@H](CO)NC(=O)[C@H](CO)NC(=O)[C@H](Cc1c[nH]cn1)NC(=O)[C@H](Cc1c[nH]cn1)NC(=O)[C@H](CC(C)C)NC(=O)[C@H](Cc1ccccc1)NC(=O)[C@H](CC(N)=O)NC(=O)[C@H](C)NC(=O)[C@H](CC(C)C)NC(=O)[C@H](CCCNC(=N)N)NC(=O)[C@H](CCC(N)=O)NC(=O)[C@@H](NC(=O)[C@H](C)NC(=O)[C@@H]1CSSC[C@H](NC(=O)[C@H](CCCCN)NC(=O)[C@H](Cc2c[nH]cn2)NC(=O)CC[C@H](NC(=O)CCCCCCCCCCCCCCCCCCC(=O)O)C(=O)O)C(=O)N[C@@H](CC(N)=O)C(=O)N[C@@H]([C@@H](C)O)C(=O)N[C@@H](C)C(=O)N[C@@H]([C@@H](C)O)C(=O)N1)[C@@H](C)O)C(=O)N[C@@H](CC(C)C)C(=O)N1CCC[C@H]1C(=O)N1CCC[C@H]1C(=O)N[C@H](C(=O)N[C@@H](CC(N)=O)C(=O)N[C@H](C(=O)NCC(=O)N[C@@H](CO)C(=O)N[C@@H](CC(N)=O)C(=O)N[C@H](C(=O)N[C@@H](Cc1ccc(O)cc1)C(N)=O)[C@@H](C)O)C(C)C)[C@@H](C)O` [Example 28, N-alpha-[(S)-4-Carboxy-4-(19-carboxynonadecanoylamino)butyryl]-His-[His17]-pramlintide] ({C20 diacid-γGlu}-HKCNTATCATQRLANFLHHSSNNFGPILPPTNVGSNTY-NH2; disulfide 3-8), for which, where the note is “read-out: Potency Luciferase”, the EC50 is 0.1 nM. The same measure, in the same setting: for `CC[C@H](C)[C@H](NC(=O)[C@@H]1CCCN1C(=O)CNC(=O)[C@H](Cc1ccccc1)NC(=O)[C@H](CC(N)=O)NC(=O)[C@H](CC(N)=O)NC(=O)[C@H](CO)NC(=O)[C@H](CO)NC(=O)[C@H](Cc1c[nH]cn1)NC(=O)[C@H](Cc1c[nH]cn1)NC(=O)[C@H](CC(C)C)NC(=O)[C@H](Cc1ccccc1)NC(=O)[C@H](CC(N)=O)NC(=O)[C@H](C)NC(=O)[C@H](CC(C)C)NC(=O)[C@H](CCCNC(=N)N)NC(=O)[C@H](CCC(N)=O)NC(=O)[C@@H](NC(=O)[C@H](C)NC(=O)[C@@H]1CSSC[C@H](NC(=O)CCCNC(=O)CCCCCCCCCCCCCCCCCCC(=O)O)C(=O)N[C@@H](CC(N)=O)C(=O)N[C@@H]([C@@H](C)O)C(=O)N[C@@H](C)C(=O)N[C@@H]([C@@H](C)O)C(=O)N1)[C@@H](C)O)C(=O)N[C@@H](CC(C)C)C(=O)N1CCC[C@H]1C(=O)N1CCC[C@H]1C(=O)N[C@H](C(=O)N[C@@H](CC(N)=O)C(=O)N[C@H](C(=O)NCC(=O)N[C@@H](CO)C(=O)N[C@@H](CC(N)=O)C(=O)N[C@H](C(=O)N[C@@H](Cc1ccc(O)cc1)C(N)=O)[C@@H](C)O)C(C)C)[C@@H](C)O` [Example 30, N-alpha-[4-(19-Carboxynonadecanoylamino)butyryl]-[His17]-pramlintide (2-37)] ({C20 diacid-GABA}-CNTATCATQRLANFLHHSSNNFGPILPPTNVGSNTY-NH2; disulfide 1-6) the value was 0.06 nM. Regarding `CC[C@H](C)[C@H](NC(=O)[C@@H]1CCCN1C(=O)CNC(=O)[C@H](Cc1ccccc1)NC(=O)[C@H](CC(N)=O)NC(=O)[C@H](CC(N)=O)NC(=O)[C@H](CO)NC(=O)[C@H](CO)NC(=O)[C@H](Cc1c[nH]cn1)NC(=O)[C@H](Cc1c[nH]cn1)NC(=O)[C@H](CC(C)C)NC(=O)[C@H](Cc1ccccc1)NC(=O)[C@H](CC(N)=O)NC(=O)[C@H](C)NC(=O)[C@H](CC(C)C)NC(=O)[C@H](CCCNC(=N)N)NC(=O)[C@H](CCC(N)=O)NC(=O)[C@@H](NC(=O)[C@H](C)NC(=O)[C@@H]1CSSC[C@H](NC(=O)[C@H](Cc2c[nH]cn2)NC(=O)CC[C@H](NC(=O)CCCCCCCCCCCCCCCCC(=O)O)C(=O)O)C(=O)N[C@@H](CC(N)=O)C(=O)N[C@@H]([C@@H](C)O)C(=O)N[C@@H](C)C(=O)N[C@@H]([C@@H](C)O)C(=O)N1)[C@@H](C)O)C(=O)N[C@@H](CC(C)C)C(=O)N1CCC[C@H]1C(=O)N1CCC[C@H]1C(=O)N[C@H](C(=O)N[C@@H](CC(N)=O)C(=O)N[C@H](C(=O)NCC(=O)N[C@@H](CO)C(=O)N[C@@H](CC(N)=O)C(=O)N[C@H](C(=O)N[C@@H](Cc1ccc(O)cc1)C(N)=O)[C@@H](C)O)C(C)C)[C@@H](C)O` [Example 32, N-alpha-[(S)-4-Carboxy-4-(17-carboxyheptadecanoylamino)butyryl]-[His1,His17]-pramlintide] ({C18 diacid-γGlu}-HCNTATCATQRLANFLHHSSNNFGPILPPTNVGSNTY-NH2; disulfide 2-7), the EC50 (read-out: Potency Luciferase) amounted to 0.08 nM. For the molecule `CC[C@H](C)[C@H](NC(=O)[C@@H]1CCCN1C(=O)CNC(=O)[C@H](Cc1ccccc1)NC(=O)[C@H](CC(N)=O)NC(=O)[C@H](CC(N)=O)NC(=O)[C@H](CO)NC(=O)[C@H](CO)NC(=O)[C@H](Cc1c[nH]cn1)NC(=O)[C@H](Cc1c[nH]cn1)NC(=O)[C@H](CC(C)C)NC(=O)[C@H](Cc1ccccc1)NC(=O)[C@H](CC(N)=O)NC(=O)[C@H](C)NC(=O)[C@H](CC(C)C)NC(=O)[C@H](CCCNC(=N)N)NC(=O)[C@H](CCC(N)=O)NC(=O)[C@@H](NC(=O)[C@H](C)NC(=O)[C@@H]1CSSC[C@H](NC(=O)[C@H](Cc2c[nH]cn2)NC(=O)CC[C@H](NC(=O)[C@H]2CC[C@H](CNC(=O)CCCCCCCCCCCCCCCCCCC(=O)O)CC2)C(=O)O)C(=O)N[C@@H](CC(N)=O)C(=O)N[C@@H]([C@@H](C)O)C(=O)N[C@@H](C)C(=O)N[C@@H]([C@@H](C)O)C(=O)N1)[C@@H](C)O)C(=O)N[C@@H](CC(C)C)C(=O)N1CCC[C@H]1C(=O)N1CCC[C@H]1C(=O)N[C@H](C(=O)N[C@@H](CC(N)=O)C(=O)N[C@H](C(=O)NCC(=O)N[C@@H](CO)C(=O)N[C@@H](CC(N)=O)C(=O)N[C@H](C(=O)N[C@@H](Cc1ccc(O)cc1)C(N)=O)[C@@H](C)O)C(C)C)[C@@H](C)O` [Example 33, N-alpha-[4-Carboxy-4-({4-[(19-carboxynonadecanoylamino)methyl]transcyclohexanecarbonyl}amino)butyryl]-[His1,His17]-pramlintide] ({C20 diacid-Trx-γGlu}-HCNTATCATQRLANFLHHSSNNFGPILPPTNVGSNTY-NH2; disulfide 2-7; C-terminus assumed), the EC50 (Potency Luciferase) turned out to be 0.1 nM. Consider `CC[C@H](C)[C@H](NC(=O)[C@@H]1CCCN1C(=O)CNC(=O)[C@H](Cc1ccccc1)NC(=O)[C@H](CC(N)=O)NC(=O)[C@H](CC(N)=O)NC(=O)[C@H](CO)NC(=O)[C@H](CO)NC(=O)[C@H](Cc1c[nH]cn1)NC(=O)[C@H](CCCNC(=N)N)NC(=O)[C@H](CC(C)C)NC(=O)[C@H](Cc1ccccc1)NC(=O)[C@H](CC(N)=O)NC(=O)[C@H](C)NC(=O)[C@H](CC(C)C)NC(=O)[C@H](CCCNC(=N)N)NC(=O)[C@H](CCC(N)=O)NC(=O)[C@@H](NC(=O)[C@H](C)NC(=O)[C@@H]1CSSC[C@H](NC(=O)[C@H](Cc2c[nH]cn2)NC(=O)[C@H](Cc2c[nH]cn2)NC(=O)COCCOCCNC(=O)CC[C@H](NC(=O)CCCCCCCCCCCCCCCCCCC(=O)O)C(=O)O)C(=O)N[C@@H](CC(N)=O)C(=O)N[C@@H]([C@@H](C)O)C(=O)N[C@@H](C)C(=O)N[C@@H]([C@@H](C)O)C(=O)N1)[C@@H](C)O)C(=O)N[C@@H](CC(C)C)C(=O)N1CCC[C@H]1C(=O)N1CCC[C@H]1C(=O)N[C@H](C(=O)N[C@@H](CC(N)=O)C(=O)N[C@H](C(=O)NCC(=O)N[C@@H](CO)C(=O)N[C@@H](CC(N)=O)C(=O)N[C@H](C(=O)N[C@@H](Cc1ccc(O)cc1)C(N)=O)[C@@H](C)O)C(C)C)[C@@H](C)O` [Example 34, N-alpha-[2-(2-{2-[4-(S)-Carboxy-4-(19-carboxynonadecanoylamino)butyrylamino]ethoxy}ethoxy)acetyl]-His-[His1,Arg17]-pramlintide] ({C20 diacid-γGlu-AEEA}-HHCNTATCATQRLANFLRHSSNNFGPILPPTNVGSNTY-NH2; disulfide 3-8), for which the EC50 (read-out: Potency Luciferase) worked out at 0.2 nM. Consider `CC[C@H](C)[C@H](NC(=O)[C@@H]1CCCN1C(=O)CNC(=O)[C@H](Cc1ccccc1)NC(=O)[C@H](CC(N)=O)NC(=O)[C@H](CC(N)=O)NC(=O)[C@H](CO)NC(=O)[C@H](CO)NC(=O)[C@H](Cc1c[nH]cn1)NC(=O)[C@H](CCCNC(=N)N)NC(=O)[C@H](CC(C)C)NC(=O)[C@H](Cc1ccccc1)NC(=O)[C@H](CC(N)=O)NC(=O)[C@H](C)NC(=O)[C@H](CC(C)C)NC(=O)[C@H](CCCNC(=N)N)NC(=O)[C@H](CCC(N)=O)NC(=O)[C@@H](NC(=O)[C@H](C)NC(=O)[C@@H]1CSSC[C@H](NC(=O)[C@H](Cc2c[nH]cn2)NC(=O)[C@H](Cc2c[nH]cn2)NC(=O)CC[C@H](NC(=O)CCCCCCCCCCCCCCCCCCC(=O)O)C(=O)O)C(=O)N[C@@H](CC(N)=O)C(=O)N[C@@H]([C@@H](C)O)C(=O)N[C@@H](C)C(=O)N[C@@H]([C@@H](C)O)C(=O)N1)[C@@H](C)O)C(=O)N[C@@H](CC(C)C)C(=O)N1CCC[C@H]1C(=O)N1CCC[C@H]1C(=O)N[C@H](C(=O)N[C@@H](CC(N)=O)C(=O)N[C@H](C(=O)NCC(=O)N[C@@H](CO)C(=O)N[C@@H](CC(N)=O)C(=O)N[C@H](C(=O)N[C@@H](Cc1ccc(O)cc1)C(N)=O)[C@@H](C)O)C(C)C)[C@@H](C)O` [Example 35, N-alpha-[(S)-4-Carboxy-4-(19-carboxynonadecanoylamino)butyryl]-His-[His1,Arg17]-pramlintide] ({C20 diacid-γGlu}-HHCNTATCATQRLANFLRHSSNNFGPILPPTNVGSNTY-NH2; disulfide 3-8), for which the EC50 (read-out: Potency Luciferase) was 0.1 nM.

Source of the values: US8895504B2, “Amylin derivatives” (priority 2008, dated 2014).
